Assay results as given in US8486398B2, “Anticoagulant antidotes comprising antibodies that bind dabigatran and/or related compounds” (Boehringer Ingelheim International GmbH, priority 2010, dated 2013).
Several values for one entry are separate records, joined by “and”; a condition that tells them apart may be missing. Equal values may be shown once. Read-outs that look alike come from different tables or passages of the source.

How the values were obtained:
[1] = compared with dabigatran; cited from earlier work
thrombin = thrombin (Bos taurus, UniProt P00735)
Protocol: Briefly human plasma is obtained by taking whole blood into 3.13% sodium citrate. This is then centrifuged to obtain platelet free plasma and transferred to a separate tube and frozen until required on the day of the assay. Plasma is thawed at 37° C. on the day of the assay.
The thrombin clotting time is performed as follows. First thrombin is diluted to manufacturer's specification (3 IU/mL thrombin) in the buffer provided (Dade Behring Test kit) and prewarmed to 37° C. It is used within 2 hrs of being prepared. All assays were performed on a commercially available CL4 clotting machine (Behnk Electronics, Norderstadt, Germany). Fifty μL of plasma is pipetted into provided cuvettes with a magnetic stirrer and allowed to stir for 2 min in the well preheated to 37° C. in the CL4 machine. At this point 100 μL of the thrombin solution is added and the time required for the plasma sample to clot is recorded automatically by the CL4. Dabigatran is preincubated for 5 min in plasma in the provided cuvettes, before adding thrombin and starting the measurement. If antibody is also tested (up 50 μL of stock solution), there is a further 5 minute incubation at 37° C. before beginning clotting (i.e. 10 min total incubation with dabigatran, 5 min total incubation with antibody and then clotting is initiated with thrombin).

SMILES	prolongation of the activated partial thromboplastin time [1]	thrombin clotting time (thrombin; 200 nM dabigatran preincubated with human plasma, baseline 10.9-11 seconds)	elevation in clotting time over baseline (thrombin; 200 nM dabigatran, human plasma) [fold]	increase in clotting time over baseline (thrombin; 500 nM dabigatran, human plasma) [fold]	thrombin clotting time (thrombin; 500 nM dabigatran, human plasma, baseline 10.9 seconds) [s]	concentration dependence of thrombin clotting time (thrombin; increasing concentrations of dabigatran, human plasma)
Cn1c(CNc2ccc(C(=N)N)cc2)nc2cc(C(=O)N(CCC(=O)OC3OC(C(=O)O)C(O)C(O)C3O)c3ccccn3)ccc21 (stereo not drawn) [1-O-acylglucuronide]	equipotent prolongation of the activated partial thromboplastin time compared with dabigatran	–	–	–	–	–
Cn1c(CNc2ccc(C(=N)N)cc2)nc2cc(C(=O)N(CCC(=O)O)c3ccccn3)ccc21 [dabigatran, N-[2-(4-Amidinophenylaminomethyl)-1-methyl-1H-benzimidazol-5-ylcarbonyl]-N-(2-pyridyl)-beta-alanine]	–	51 s and 63.7 s	~5	~10	111.7	concentration-dependent increase in the thrombin clotting time
